# Measured values published in US10786570B2, “Ferritin nanoparticle compositions and methods to modulate cell activity” (The Rockefeller University, priority 2011, dated 2020).
# Experiments:
# Assay type in all cases: cell-based
# [1] = test system: HEK 293T cells expressing TRPV1^His and Ca2+-dependent human insulin construct; test: RF dependent proinsulin release (ELISA)
# Description: (§1) RF dependent release of calcium dependent human insulin: 24 h prior to the study, cells were placed in serum free medium at 32° C. to ensure minimal activation of TRPV1 and calcium dependent pathways. On the day of study, cells were preincubated for 30 min in 500 μl PBS or 500 μl of functionalized iron oxide nanoparticles (1 mg/ml) resuspended in PBS. Cells were washed three times in PBS before incubation in 300 μl of calcium imaging buffer at room temperature (control) or in a RF field at room temperature. The supernatant was removed at 15, 30, 45 or 60 min depending on the study, spun to remove cell debris and frozen at −80° C. until assay. For gene expression analysis, cells from the supernatant and cover glass were lysed and the lysate stored at […] until RNA purification. For apoptosis studies, the cells were incubated with functionalized nanoparticles at 1, 2, 4 or 8 mg/ml before RF treatment and immunocytochemistry. […]
# (§2) Assays. Proinsulin was measured in cell supernatants by ELISA (Alpco, Salem, N.H.) according to manufacturer's protocol. Blood glucose was determined using a Breeze 2 glucometer (Bayer; Leverkusen, Germany). […] Plasma levels of human insulin, produced by xenografts, were determined in mouse plasma by human specific ELISA (Alpco).
# [2] = test system: HEK 293T cells expressing TRPV1^His and Ca2+-dependent human insulin construct; test: RF dependent insulin gene expression (real-time PCR); conditions: ruthenium red
# Description: (§3) RF dependent release of calcium dependent human insulin: 24 h prior to the study, cells were placed in serum free medium at 32° C. to ensure minimal activation of TRPV1 and calcium dependent pathways. On the day of study, cells were preincubated for 30 min in 500 μl PBS or 500 μl of functionalized iron oxide nanoparticles (1 mg/ml) resuspended in PBS. Cells were washed three times in PBS before incubation in 300 μl of calcium imaging buffer at room temperature (control) or in a RF field at room temperature. The supernatant was removed at 15, 30, 45 or 60 min depending on the study, spun to remove cell debris and frozen at −80° C. until assay. For gene expression analysis, cells from the supernatant and cover glass were lysed and the lysate stored at […] until RNA purification. For apoptosis studies, the cells were incubated with functionalized nanoparticles at 1, 2, 4 or 8 mg/ml before RF treatment and immunocytochemistry. For RF dependent time course from stable PC12 cells, cells were left in serum containing medium prior to treatment to more accurately replicate conditions in vivo before performing the studies as described above. Medium was removed for assay at 15 and 30 mins.
# (§4) For studies examining the role of TRP channels in RF mediated proinsulin release, ruthenium red (100 μM) was added to the calcium imaging buffer. […]
# [3] = test system: HEK 293T cells transfected with TRPV1, BAPTM and calcium dependent human insulin; test: RF dependent proinsulin release, dual component system; conditions: ruthenium red, TRPV1 BAP system
# Description: as §1, §2
# [4] = test system: HEK 293T cells transfected with TRPV1, BAPTM and calcium dependent human insulin; test: RF dependent insulin gene expression, dual component system; conditions: ruthenium red, TRPV1 BAP system
# Description: as §3, §4
Compound,"Effect on RF dependent proinsulin release ([1]; Tacrolimus 100 nM, preincubation 24 hours)",Effect on RF dependent proinsulin release ([1]; ruthenium red 100 μM in calcium imaging buffer),Effect on RF dependent insulin gene expression [2],Effect on RF dependent proinsulin release [3],Effect on RF dependent insulin gene expression [4]
"C=CC[C@@H]1/C=C(\C)C[C@H](C)C[C@H](OC)[C@H]2O[C@@](O)(C(=O)C(=O)N3CCCC[C@H]3C(=O)O[C@H](/C(C)=C/[C@@H]3CC[C@@H](O)[C@H](OC)C3)[C@H](C)[C@@H](O)CC1=O)[C@H](C)C[C@@H]2OC [tacrolimus, Tacrolimus]",blocked,,,,
N.N.N.N.N.N.N.N.N.N.N.N.N.N.[Cl-].[Cl-].[Cl-].[Cl-].[Cl-].[Cl-].[O-2].[O-2].[Ru+3].[Ru+3].[Ru+4] [ruthenium red],,blocked,blocked,blocked,blocked
